From patent US11882828B2, “Mosquito vector control compositions, methods and products utilizing same” (priority 2015, dated 2024) come the findings set out here.

One data set relates to Aedes aegypti. As to the kind of experiment: Example B7: evaluation of insecticide impregnated polymer surfaces. The format is in vivo. Particulars: AI content 2 wt %, polymer 4 to 6 weeks old; for mortality: 24 hours after exposure; for knock-down: after one hour. A digest of the protocol: (§1)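 Methoxyacrylates were melt-blended into LDPE, HDPE or PP and moulded into sheets about 0.1 mm thick. Ten 3–5-day-old non-blood-fed adult females were held 24 h on 10% sucrose, then confined in a Petri dish under the treated sheet for 1 h. Knockdown was scored at 1 h and mortality 24 h after exposure.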

Another data set relates to Anopheles stephensi. The description is as above. The conditions noted are these: AI content 2 wt %; for mortality: 24 hours after exposure; for knock-down: after one hour. The class given is in vivo. A digest of the protocol: as §1

SMILES strings stand for the structures.

As a reminder, the mortality is the share of the test organisms that died. On to `CO/C=C(/C(=O)OC)c1ccccc1Oc1nc(C(C)(C)C)ns1` [Compound 7, Methyl (E)-2-[2-[(3-tert-butyl-1,2,4-thiadiazol-5-yl)oxy]phenyl]-3-methoxy-prop-2-enoate], for which the mortality in the data set on Aedes aegypti (HDPE) came to 47%; with Aedes aegypti (LDPE), 97%; in the data set with Aedes aegypti (PP), 23%; in the data set on Anopheles stephensi (HDPE, polymer 4 to 6 weeks old), 87%; in the data set on Anopheles stephensi (HDPE, polymer 6 to 8 weeks old), 87%; in the data set with Anopheles stephensi (LDPE, polymer 4 to 6 weeks old), 97%. Also, the mortality came out at 100% with Anopheles stephensi (LDPE, polymer 6 to 8 weeks old); 87% with Anopheles stephensi (PP, polymer 4 to 6 weeks old); 77% in the data set with Anopheles stephensi (PP, polymer 6 to 8 weeks old). Besides, the knock-down in the data set on Aedes aegypti (HDPE) amounted to 83%; in the data set with Aedes aegypti (LDPE), 100%; with Aedes aegypti (PP) it was 67%; with Anopheles stephensi (HDPE, polymer 4 to 6 weeks old), 93%; in the data set on Anopheles stephensi (HDPE, polymer 6 to 8 weeks old), 100%; with Anopheles stephensi (LDPE, polymer 4 to 6 weeks old) it was 100%. The knock-down in the data set on Anopheles stephensi (LDPE, polymer 6 to 8 weeks old) came out at 87%; in the data set on Anopheles stephensi (PP, polymer 4 to 6 weeks old) it was 93%; in the data set with Anopheles stephensi (PP, polymer 6 to 8 weeks old), 100%.
